# Bridge positions count the residues as written; N and C are the ends. Square brackets hold non-standard residues; d marks the D form. Peptide text beside a SMILES is read from it. Hyp = O=C(O)[C@@H]1C[C@@H](O)CN1; Cit = NC(=O)NCCC[C@H](N)C(=O)O
# Experiments:
# [1] = Physical stability of peptide analogues (Thioflavin T fibrillation); type: physicochemical; details: maximum ThT signal normalized between hAMY maximum and buffer background; 40° C., shaking, four days; pH 7 per table title
# Outline: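 ThT fluorescence (450 nm excitation, 480 nm emission; 4 μM dye) was read every 10 min over four days at 40° C under 700 rpm shaking stress, after 1 h in pH 4 acetate or pH 7 phosphate (50 mM). Peak smoothed signal expressed as percent, scaled between buffer background and hAMY maximum.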
# hAMY3 receptor = molecular target: T1, hAMY3 receptor (Homo sapiens, UniProt O60896+P30988); assay: cAMP assay for in vitro receptor activation, hAMY3-R; type: cell-based; details: cAMP assay, hAMY3 receptor; read-out: hAMY3R EC50
# T1 sequence (P30988 25-474): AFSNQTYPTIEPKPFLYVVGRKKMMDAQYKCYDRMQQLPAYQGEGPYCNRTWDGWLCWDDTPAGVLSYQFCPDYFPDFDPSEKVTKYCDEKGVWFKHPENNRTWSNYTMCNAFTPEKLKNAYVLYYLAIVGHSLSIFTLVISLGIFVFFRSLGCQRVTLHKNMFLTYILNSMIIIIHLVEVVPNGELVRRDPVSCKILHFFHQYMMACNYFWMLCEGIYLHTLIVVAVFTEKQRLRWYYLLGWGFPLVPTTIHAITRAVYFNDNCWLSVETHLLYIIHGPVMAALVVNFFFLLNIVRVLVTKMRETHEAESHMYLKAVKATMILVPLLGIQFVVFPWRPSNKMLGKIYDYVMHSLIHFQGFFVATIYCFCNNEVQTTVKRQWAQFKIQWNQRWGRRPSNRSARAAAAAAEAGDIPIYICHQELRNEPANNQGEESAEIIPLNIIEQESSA
# T1 sequence (O60896 24-148 partner): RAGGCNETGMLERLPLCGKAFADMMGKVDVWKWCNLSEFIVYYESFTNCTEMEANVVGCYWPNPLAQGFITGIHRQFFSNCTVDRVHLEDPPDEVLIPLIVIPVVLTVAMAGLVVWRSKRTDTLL
# Outline: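 Graded compound concentrations were applied for 30 min at room temperature to stably hAMY3-expressing cells in DPBS, 0.05% casein, 0.5 mM IBMX; cAMP detected by TR-FRET.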
Structure (SMILES),Max ThT signal (%) [1] [%],EC50 (hAMY3 receptor) [nM]
CC[C@H](C)[C@H](NC(=O)[C@H](CCC(N)=O)NC(=O)[C@H](Cc1c[nH]cn1)NC(=O)[C@H](C)NC(=O)[C@H](CC(C)C)NC(=O)[C@H](CCCNC(=N)N)NC(=O)[C@H](CCC(N)=O)NC(=O)[C@@H](NC(=O)[C@@H](NC(=O)[C@@H]1CSSC[C@H](NC(=O)CN)C(=O)N[C@@H](CCCNC(=N)N)C(=O)N[C@@H](Cc2ccccc2)C(=O)NCC(=O)N[C@@H]([C@@H](C)O)C(=O)N1)[C@@H](C)O)C(C)C)C(=O)N[C@@H](Cc1ccc(O)cc1)C(=O)N[C@@H](CCC(N)=O)C(=O)N[C@@H](Cc1ccccc1)C(=O)N[C@H](C(=O)N[C@@H](CC(=O)O)C(=O)N[C@@H](CCCCN)C(=O)N[C@@H](CC(=O)O)C(=O)N[C@@H](CCCCN)C(=O)N[C@@H](CC(=O)O)C(=O)N[C@@H](CC(N)=O)C(=O)N[C@H](C(=O)N[C@@H](C)C(=O)N1CCC[C@H]1C(=O)N[C@@H](CCCNC(=N)N)C(=O)N[C@@H](CO)C(=O)N[C@@H](CC(N)=O)C(=O)N[C@H](C(=O)N[C@@H](CO)C(=O)N1CCC[C@H]1C(=O)N[C@@H](CCC(N)=O)C(=O)NCC(=O)N[C@@H](Cc1ccc(O)cc1)C(N)=O)[C@@H](C)CC)C(C)C)[C@@H](C)O [compound 182] (H-GCRFGTCTVQRLAHQIYQFTDKDKDNVAPRSNISPQGY-NH2; disulfide 2-7; N-terminus assumed),15.600,0.085
CC[C@H](C)[C@H](NC(=O)[C@H](CCC(N)=O)NC(=O)[C@H](Cc1c[nH]cn1)NC(=O)[C@H](C)NC(=O)[C@H](CC(C)C)NC(=O)[C@H](Cc1c[nH]c2ccccc12)NC(=O)[C@H](CCC(N)=O)NC(=O)[C@@H](NC(=O)[C@@H](NC(=O)[C@@H]1CSSC[C@H](NC(=O)CN)C(=O)N[C@@H](CCCNC(=N)N)C(=O)N[C@@H](Cc2ccccc2)C(=O)NCC(=O)N[C@@H]([C@@H](C)O)C(=O)N1)[C@@H](C)O)C(C)C)C(=O)N[C@@H](Cc1ccc(O)cc1)C(=O)N[C@@H](CCC(N)=O)C(=O)N[C@@H](Cc1ccccc1)C(=O)N[C@H](C(=O)N[C@@H](CC(=O)O)C(=O)N[C@@H](CCCCN)C(=O)N[C@@H](CC(=O)O)C(=O)N[C@@H](CCCCN)C(=O)N[C@@H](CC(=O)O)C(=O)N[C@@H](CC(N)=O)C(=O)N[C@H](C(=O)N[C@@H](C)C(=O)N1CCC[C@H]1C(=O)N[C@@H](CCCNC(=N)N)C(=O)N[C@H](C(=O)N[C@@H](CCCCN)C(=O)N[C@H](C(=O)NCC(=O)N1CCC[C@H]1C(=O)N[C@@H](CCC(N)=O)C(=O)NCC(=O)N1C[C@H](O)C[C@H]1C(N)=O)C(C)C)[C@@H](C)O)C(C)C)[C@@H](C)O [compound 322] (H-GCRFGTCTVQWLAHQIYQFTDKDKDNVAPRTKVGPQG[Hyp]-NH2; disulfide 2-7; N-terminus assumed),18.400,0.014
CC[C@H](C)[C@H](NC(=O)[C@H](CCCCN)NC(=O)[C@@H](NC(=O)[C@H](CCCNC(=N)N)NC(=O)[C@@H]1CCCN1C(=O)[C@H](C)NC(=O)[C@@H](NC(=O)[C@H](CC(N)=O)NC(=O)[C@H](CC(=O)O)NC(=O)[C@H](CCCCN)NC(=O)[C@H](CC(=O)O)NC(=O)[C@H](CCCCN)NC(=O)[C@H](CC(=O)O)NC(=O)[C@@H](NC(=O)[C@H](Cc1ccccc1)NC(=O)[C@H](CCC(N)=O)NC(=O)[C@H](Cc1ccc(O)cc1)NC(=O)[C@@H](NC(=O)[C@H](CCC(N)=O)NC(=O)[C@H](Cc1c[nH]cn1)NC(=O)[C@H](C)NC(=O)[C@H](CC(C)C)NC(=O)[C@H](CCCNC(N)=O)NC(=O)[C@H](CCC(N)=O)NC(=O)[C@@H](NC(=O)[C@@H](NC(=O)[C@@H]1CSSC[C@H](NC(=O)CN)C(=O)N[C@@H](CCCNC(=N)N)C(=O)N[C@@H](Cc2ccccc2)C(=O)NCC(=O)N[C@@H]([C@@H](C)O)C(=O)N1)[C@@H](C)O)C(C)C)[C@@H](C)CC)[C@@H](C)O)C(C)C)[C@@H](C)O)C(=O)NCC(=O)N1CCC[C@H]1C(=O)N[C@@H](CCC(N)=O)C(=O)NCC(=O)N1C[C@H](O)C[C@H]1C(N)=O [compound 274] (H-GCRFGTCTVQ[Cit]LAHQIYQFTDKDKDNVAPRTKIGPQG[Hyp]-NH2; disulfide 2-7; N-terminus assumed),26.800,0.019
CC[C@H](C)[C@H](NC(=O)[C@H](CCC(N)=O)NC(=O)[C@H](Cc1c[nH]cn1)NC(=O)[C@H](C)NC(=O)[C@H](CC(C)C)NC(=O)[C@H](CCCNC(=N)N)NC(=O)[C@H](CCC(N)=O)NC(=O)[C@@H](NC(=O)[C@@H](NC(=O)[C@@H]1CSSC[C@H](NC(=O)CN)C(=O)N[C@@H](CCCNC(=N)N)C(=O)N[C@@H]([C@@H](C)O)C(=O)NCC(=O)N[C@@H]([C@@H](C)O)C(=O)N1)[C@@H](C)O)C(C)C)C(=O)N[C@@H](Cc1ccc(O)cc1)C(=O)N[C@@H](CCC(N)=O)C(=O)N[C@@H](Cc1ccccc1)C(=O)N[C@H](C(=O)N[C@@H](CC(=O)O)C(=O)N[C@@H](CCCCN)C(=O)N[C@@H](CC(=O)O)C(=O)N[C@@H](CCCCN)C(=O)N[C@@H](CC(=O)O)C(=O)N[C@@H](CC(N)=O)C(=O)N[C@H](C(=O)N[C@@H](C)C(=O)N1CCC[C@H]1C(=O)N[C@@H](CCCNC(=N)N)C(=O)N[C@@H](CO)C(=O)N[C@@H](CC(N)=O)C(=O)N[C@H](C(=O)N[C@@H](CO)C(=O)N1CCC[C@H]1C(=O)N[C@@H](CCC(N)=O)C(=O)NCC(=O)N1C[C@H](O)C[C@H]1C(N)=O)C(C)C)C(C)C)[C@@H](C)O [compound 224] (H-GCRTGTCTVQRLAHQIYQFTDKDKDNVAPRSNVSPQG[Hyp]-NH2; disulfide 2-7; N-terminus assumed),2.000,0.186

# Results, then the compound that gave them:
Max ThT signal (%) [1] [%],EC50 (hAMY3 receptor) [nM],Structure (SMILES)
3.300,0.033,CC[C@H](C)[C@H](NC(=O)[C@H](CCC(N)=O)NC(=O)[C@H](Cc1c[nH]cn1)NC(=O)[C@H](C)NC(=O)[C@H](CC(C)C)NC(=O)[C@H](CCCNC(=N)N)NC(=O)[C@H](CCC(N)=O)NC(=O)[C@@H](NC(=O)[C@@H](NC(=O)[C@@H]1CSSC[C@H](NC(=O)CN)C(=O)N[C@@H](CCCNC(=N)N)C(=O)N[C@@H](Cc2ccccc2)C(=O)NCC(=O)N[C@@H]([C@@H](C)O)C(=O)N1)[C@@H](C)O)C(C)C)C(=O)N[C@@H](Cc1ccc(O)cc1)C(=O)N[C@@H](CCC(N)=O)C(=O)N[C@@H](Cc1ccccc1)C(=O)N[C@H](C(=O)N[C@@H](CC(=O)O)C(=O)N[C@@H](CCCCN)C(=O)N[C@@H](CC(=O)O)C(=O)N[C@@H](CCCCN)C(=O)N[C@@H](CC(=O)O)C(=O)N[C@@H](CC(N)=O)C(=O)N[C@H](C(=O)N[C@@H](C)C(=O)N1CCC[C@H]1C(=O)N[C@@H](CCCNC(=N)N)C(=O)N[C@@H](CO)C(=O)N[C@@H](CC(N)=O)C(=O)N[C@H](C(=O)NCC(=O)N1CCC[C@H]1C(=O)N[C@@H](CCC(N)=O)C(=O)NCC(=O)N1C[C@H](O)C[C@H]1C(N)=O)C(C)C)C(C)C)[C@@H](C)O [compound 135] (H-GCRFGTCTVQRLAHQIYQFTDKDKDNVAPRSNVGPQG[Hyp]-NH2; disulfide 2-7; N-terminus assumed)
7.400,0.024,CC[C@H](C)[C@H](NC(=O)[C@H](CC(N)=O)NC(=O)[C@@H](NC(=O)[C@H](CCCNC(=N)N)NC(=O)[C@@H]1CCCN1C(=O)[C@H](C)NC(=O)[C@@H](NC(=O)[C@H](CC(N)=O)NC(=O)[C@H](CC(=O)O)NC(=O)[C@H](CCCCN)NC(=O)[C@H](CC(=O)O)NC(=O)[C@H](CCCCN)NC(=O)[C@H](CC(=O)O)NC(=O)[C@@H](NC(=O)[C@H](Cc1ccccc1)NC(=O)[C@H](CCC(N)=O)NC(=O)[C@H](Cc1ccc(O)cc1)NC(=O)[C@@H](NC(=O)[C@H](CCC(N)=O)NC(=O)[C@H](Cc1c[nH]cn1)NC(=O)[C@H](C)NC(=O)[C@H](CC(C)C)NC(=O)[C@H](CCCNC(=N)N)NC(=O)[C@H](CCC(N)=O)NC(=O)[C@@H](NC(=O)[C@@H](NC(=O)[C@@H]1CSSC[C@H](NC(=O)CN)C(=O)N[C@@H](CCCNC(=N)N)C(=O)N[C@@H]([C@@H](C)O)C(=O)NCC(=O)N[C@@H]([C@@H](C)O)C(=O)N1)[C@@H](C)O)C(C)C)[C@@H](C)CC)[C@@H](C)O)C(C)C)[C@@H](C)O)C(=O)NCC(=O)N1CCC[C@H]1C(=O)N[C@@H](CCC(N)=O)C(=O)NCC(=O)N1C[C@H](O)C[C@H]1C(N)=O [compound 118] (H-GCRTGTCTVQRLAHQIYQFTDKDKDNVAPRTNIGPQG[Hyp]-NH2; disulfide 2-7; N-terminus assumed)

# From patent publication US12139520B2 (priority 2020, dated 2024)
